Experimental data: patent US20050074834A1 (priority 2001, published 2005)
“Also recorded” adds a separate entry of the source. Structures can show the parent of a compound that is named as a salt.

Key:
[1] = tested on: chromatophore/neuronal cell; assay type: cell-based
chromatophores [2] = tested on: chromatophores
[3] = tested on: chromatophore/fungal cell; assay type: cell-based
chromatophores [4] = assay type: cell-based
chromatophores [5] = test: cells; settings: read-out: Threshold concentration PPM
[6] = tested on: chromatophore/protozoal cell; assay type: cell-based
xanthophores = assay type: cell-based
fish chromatophores = assay type: cell-based
erythrophores = assay type: cell-based
iridophores = assay type: cell-based
melanophores = assay type: cell-based
[7] = tested on: chromatophore/bacterial cell; assay type: cell-based
Betta chromatophores [8] = assay type: cell-based
[9] = tested on: Hemichromis bimaculatus chromatophores; assay type: cell-based
Betta chromatophores [10] = assay type: cell-based, Betta splendens
[11] = tested on: Betta splendens chromatophores; assay type: cell-based
[12] = tested on: Betta splendens erythrophores; assay type: cell-based
ryanodine receptors = settings: cited from earlier work

## Nc1ncnc2c1ncn2[C@@H]1O[C@H](COP(=O)(O)OP(=O)(O)OP(=O)(O)O)[C@@H](O)[C@H]1O [ATP]
[1]
  2-Cell Cytosensor (second cell type included): Erythr. Aggr.
Chromatophores [2]
  Threshold concentration PPM: X (key: X=1 to 100 PPM; XX=100 to 1000 PPM)

## C[C@@H]1[C@H](O)[C@@H](C)/C=C/C=C/C=C/C=C/C=C/C=C/C=C/[C@H](O[C@@H]2O[C@H](C)[C@@H](O)[C@H](N)[C@@H]2O)C[C@@H]2O[C@](O)(C[C@@H](O)C[C@@H](O)[C@H](O)CC[C@@H](O)C[C@@H](O)CC(=O)O[C@H]1C)C[C@H](O)[C@H]2C(=O)O [Amphotericin B]
[3]
  2-Cell Cytosensor (second cell type included): Normal
Chromatophores [2]
  Response time Hr.: XX (key: X=1-6 hr; XX=6-24 hr)
  Threshold concentration PPM: X (key: X=1 to 100 PPM; XX=100 to 1000 PPM)

## Cn1c(=O)c2c(ncn2C)n(C)c1=O [Caffeine]
Chromatophores [4]
  concentration printed for an analyte to which chromatophores respond: 100 µM
Chromatophores [2]
  Threshold concentration PPB: XXX

## C[N+](C)(C)CCOC(N)=O [Carbachol]
[1]
  2-Cell Cytosensor (second cell type included): Erythr. Aggr.
Chromatophores [5]
  minimal effective concentration: 1 to 100 µg/mL

## CCN(CC)CCCC(C)Nc1ccnc2cc(Cl)ccc12 (stereo not drawn) [Chloroquine]
[6]
  2-Cell Cytosensor (second cell type included): Normal
Chromatophores [2]
  Response time Hr.: XX (key: X=1-6 hr; XX=6-24 hr)
Chromatophores [5]
  minimal effective concentration: 100 to 1000 µg/mL

## Clc1cccc(Cl)c1N=C1NCCN1 [Clonidine]
xanthophores
  Chromatophore response Xanthophores: Disp.
Fish chromatophores
  chromatophore response after forskolin and PMSF: no aggregation occurred
  chromatophore response in the absence of forskolin: aggregate; also recorded: aggregation
  chromatophore response in the presence of forskolin: unresponsive; also recorded: not detectable
Chromatophores [2]
  Threshold concentration PPB: XX (key: X=1 to 100 PPB; XX=100 to 1000 PPB)

## COP(=O)(OC)OC=C(Cl)Cl [Dichlorvos]
erythrophores
  Chromatophore response Erythrophores: Imp. (FS)
iridophores
  Chromatophore response Iridophores: Hue change, then Imp.
Chromatophores [2]
  Response time Hr.: X (key: X=1-6 hr; XX=6-24 hr)

## C=C[C@@]1(C)CC(=O)[C@]2(O)[C@@]3(C)[C@@H](O)CCC(C)(C)[C@@H]3[C@H](O)[C@H](OC(C)=O)[C@@]2(C)O1 [Forskolin]
Chromatophores [4]
  concentration printed for an analyte to which chromatophores respond: 0.01 µM
Chromatophores [2]
  Threshold concentration PPB: XX (key: X=1 to 100 PPB; XX=100 to 1000 PPB)

## C[C@]12CCC(=O)C=C1CC[C@@H]1[C@@H]2[C@@H](O)C[C@@]2(C)[C@H]1CC[C@]2(O)C(=O)CO [Hydrocortisone]
melanophores
  Chromatophore response Melanophores: Hyp. D.
erythrophores
  Chromatophore response Erythrophores: HypD.
Chromatophores [2]
  Response time Hr.: XX (key: X=1-6 hr; XX=6-24 hr)

## Cc1ncc([N+](=O)[O-])n1CCO [Metronidazole]
[6]
  2-Cell Cytosensor (second cell type included): Normal
Chromatophores [2]
  Response time Hr.: XX (key: X=1-6 hr; XX=6-24 hr)
Chromatophores [5]
  minimal effective concentration: 1 to 100 µg/mL

## COC(=O)C=C(C)OP(=O)(OC)OC [Mevinphos]
melanophores
  Chromatophore response Melanophores: Imp.
erythrophores
  Chromatophore response Erythrophores: Imp. (FS)
iridophores
  Chromatophore response Iridophores: Hue change, then Imp.
Chromatophores [2]
  Response time Hr.: X (key: X=1-6 hr; XX=6-24 hr)

## CCn1cc(C(=O)O)c(=O)c2ccc(C)nc21 [Nalidixic acid]
[7]
  2-Cell Cytosensor (second cell type included): Normal
Chromatophores [2]
  Response time Hr.: XX (key: X=1-6 hr; XX=6-24 hr)
Chromatophores [5]
  minimal effective concentration: 1 to 100 µg/mL

## c1ccc2c(CC3=NCCN3)cccc2c1 [Naphazoline]
xanthophores
  Chromatophore response Xanthophores: Disp.
Chromatophores [2]
  Threshold concentration PPB: XX (key: X=1 to 100 PPB; XX=100 to 1000 PPB)

## NC[C@H](O)c1ccc(O)c(O)c1 [Norepinephrine]
xanthophores
  Chromatophore response Xanthophores: Disp.
iridophores
  Chromatophore response Iridophores: Hue changes (FS)
Betta chromatophores [8]
  appearance of Betta chromatophores after exposure: aggregation of chromatophore pigment is apparent
[9]
  change of appearance of Hemichromis bimaculatus chromatophores: change the appearance
Betta chromatophores [10]
  response time of the cytosensor: less than 1 minute

## Cc1cc(C(C)(C)C)c(O)c(C)c1CC1=NCCN1 [Oxymetazoline]
xanthophores
  Chromatophore response Xanthophores: Disp.
Chromatophores [2]
  Threshold concentration PPB: XX (key: X=1 to 100 PPB; XX=100 to 1000 PPB)

## CCOP(=O)(OCC)Oc1ccc([N+](=O)[O-])cc1 [Paraoxon]
melanophores
  Chromatophore response Melanophores: A/I (FS)
erythrophores
  Chromatophore response Erythrophores: Aggr. (FS)
iridophores
  Chromatophore response Iridophores: Hue changes (FS)

## C=C[C@H]1C[N@@]2CC[C@H]1C[C@H]2[C@H](O)c1ccnc2ccc(OC)cc12 [Quinine sulfate]
[6]
  2-Cell Cytosensor (second cell type included): Normal
Chromatophores [2]
  Response time Hr.: XX (key: X=1-6 hr; XX=6-24 hr)
Chromatophores [5]
  minimal effective concentration: 100 to 1000 µg/mL

## [H]/N=C(/N)N[C@H]1[C@H](O)[C@@H](O)[C@H](O[C@@H]2O[C@@H](C)[C@](O)(C=O)[C@H]2O[C@@H]2O[C@@H](CO)[C@H](O)[C@@H](O)[C@@H]2NC)[C@@H](N/C(N)=N\[H])[C@@H]1O [Streptomycin]
[7]
  2-Cell Cytosensor (second cell type included): Normal
Chromatophores [2]
  Response time Hr.: XX (key: X=1-6 hr; XX=6-24 hr)
Chromatophores [5]
  minimal effective concentration: 1 to 100 µg/mL

## c1ccc2c(c1)CCCC2C1=NCCN1 (stereo not drawn) [Tetrahydrozoline]
xanthophores
  Chromatophore response Xanthophores: Disp.
Chromatophores [2]
  Threshold concentration PPB: XX (key: X=1 to 100 PPB; XX=100 to 1000 PPB)

## COP(=O)(OC)C(O)C(Cl)(Cl)Cl (stereo not drawn) [Trichlorfon]
erythrophores
  Chromatophore response Erythrophores: Imp. (FS)
iridophores
  Chromatophore response Iridophores: Hue change (FS)
Chromatophores [2]
  Response time Hr.: X (key: X=1-6 hr; XX=6-24 hr)

## Cholera toxin
erythrophores
  Chromatophore response Erythrophores: Imp.
Betta chromatophores [8]
  chromatophore appearance after exposure: Pigment aggregation is evident
  pigment aggregation in response to norepinephrine after pre-incubation with CTX: impaired pigment aggregation in response to NE
  selective sensitivity of color classes of chromatophores: selective sensitivity of erythrophores to cholera toxin
[9]
  change of appearance of Hemichromis bimaculatus chromatophores: change the appearance
  erythrophore response upon norepinephrine exposure: impaired
  melanophore response upon challenge by norepinephrine: unimpaired
[11]
  concentration at which inhibition of norepinephrine induced pigment aggregation is detected: ≥ 1 ng/mL
  effect on Betta splendens chromatophores: causes hyperdispersion
Chromatophores [2]
  Response time Hr.: X (key: X=1-6 hr; XX=6-24 hr)
  Threshold concentration PPM: X (key: X=1 to 100 PPM; XX=100 to 1000 PPM)

## Penicillin
[7]
  2-Cell Cytosensor (second cell type included): Normal
Chromatophores [2]
  Response time Hr.: XX (key: X=1-6 hr; XX=6-24 hr)
  Threshold concentration PPM: X (key: X=1 to 100 PPM; XX=100 to 1000 PPM)

## Pertussis toxin: Bacterial toxin, Pertussis toxin
melanophores
  Chromatophore response Melanophores: Imp.
Betta chromatophores [8]
  selective sensitivity of color classes of chromatophores: melanophores to pertussis toxin
Chromatophores [2]
  Response time Hr.: X (key: X=1-6 hr; XX=6-24 hr)
  Threshold concentration PPM: X (key: X=1 to 100 PPM; XX=100 to 1000 PPM)

## Ryanodine
[12]
  Morphology Effect: Aggregation: Yes and No
  Morphology Effect: Dispersion: No
erythrophores
  Chromatophore response Erythrophores: Aggr.
Chromatophores [2]
  Threshold concentration PPB: XX (key: X=1 to 100 PPB; XX=100 to 1000 PPB)
Ryanodine receptors
  concentrations at which ryanodine acts as an antagonist of the same receptors: > 1 µM
